Test results taken from ChEMBL document CHEMBL1201862, “PubChem BioAssay data set” (2004).
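Where inhibition never reached the appropriate level, the endpoint shown equals the highest concentration tested. Otherwise, values were interpolated linearly from a five-concentration, 48-hour dose response in 96-well plates. Here, GI50 denotes the concentration required for 50% inhibition of growth.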 Calls of active or inactive are those of the source. No stated cut-off is given here; in the data, active = GI50 up to about 1.1 µM and inactive = higher.

Assays:
Assay in all cases: inhibition of tumour cell growth, NCI panel, 48 h
[1] = system: SF-268
[2] = system: KM12
[3] = system: OVCAR-4
[4] = system: NCI-H23
[5] = system: UACC-257
[6] = system: MDA-MB-231
[7] = system: SK-MEL-5
[8] = system: SK-OV-3
[9] = system: UACC-62
[10] = system: A549
[11] = system: HCT-116
[12] = system: NCI-H522
[13] = system: U-251
[14] = system: HCC 2998
[15] = system: 786-0
[16] = system: T47D
[17] = system: HL-60
[18] = system: CAKI-1
[19] = system: RXF 393
[20] = system: CCRF-CEM

Row | SMILES | GI50 [1] | GI50 [2] | GI50 [3] | GI50 [4] | GI50 [5] | GI50 [6] | GI50 [7] | GI50 [8] | GI50 [9] | GI50 [10] | GI50 [11] | GI50 [12] | GI50 [13] | GI50 [14] | GI50 [15] | GI50 [16] | GI50 [17] | GI50 [18] | GI50 [19] | GI50 [20]
1 | COc1ccc2c(c1)CCc1c(-c3noc4c3CCc3cc(OC)ccc3-4)noc1-2 | > 100 µM (inactive) | > 100 µM (inactive) | > 100 µM (inactive) | > 100 µM (inactive) | > 100 µM (inactive) | > 100 µM (inactive) | > 100 µM (inactive) | > 100 µM (inactive) | > 100 µM (inactive) | > 100 µM (inactive) | > 100 µM (inactive) | > 100 µM (inactive) | > 100 µM (inactive) | 40.4 µM (inactive) | > 100 µM (inactive) | > 100 µM (inactive) | > 100 µM (inactive) | > 100 µM (inactive) | > 100 µM (inactive) | –
2 | O=C(Cc1ccccc1)Nn1c(-c2ccccc2)nc2ccccc2c1=O | > 100 µM (inactive) | > 100 µM (inactive) | > 100 µM (inactive) | > 100 µM (inactive) | > 100 µM (inactive) | > 100 µM (inactive) | 2.38 µM (inactive) | > 100 µM (inactive) | > 100 µM (inactive) | > 100 µM (inactive) | > 100 µM (inactive) | > 100 µM (inactive) | > 100 µM (inactive) | > 100 µM (inactive) | > 100 µM (inactive) | > 100 µM (inactive) | > 100 µM (inactive) | – | > 100 µM (inactive) | > 100 µM (inactive)
3 | CC1(c2ccc(Cl)s2)CC(c2ccc(Cl)s2)=C(C#N)C(=C(C#N)C#N)N1 (stereo not drawn) | 20.7 µM (inactive) | 18 µM (inactive) | 16.5 µM (inactive) | 21.2 µM (inactive) | 21.9 µM (inactive) | 23.2 µM (inactive) | 15.2 µM (inactive) | 16.9 µM (inactive) | 15.8 µM (inactive) | 22.4 µM (inactive) | 17.3 µM (inactive) | – | 17.3 µM (inactive) | 18.9 µM (inactive) | 19.8 µM (inactive) | 18.8 µM (inactive) | 16.7 µM (inactive) | 19.1 µM (inactive) | 16.9 µM (inactive) | 16 µM (inactive)
4 | COc1cc(Cn2c3c(c4cc(O)ccc42)C(=O)c2ccccc2C3=O)cc(OC)c1 | 2.88 µM (inactive) | 2.43 µM (inactive) | 4.86 µM (inactive) | 8.57 µM (inactive) | 39.2 µM (inactive) | 5.32 µM (inactive) | 4.29 µM (inactive) | 2.32 µM (inactive) | 2.04 µM (inactive) | 10.5 µM (inactive) | 0.881 µM (active) | 2.43 µM (inactive) | 3.6 µM (inactive) | 6.19 µM (inactive) | 2.37 µM (inactive) | 6.35 µM (inactive) | 13.7 µM (inactive) | 15.2 µM (inactive) | 3.92 µM (inactive) | –
5 | O=C(O)c1ccccc1/C=C1/Nc2ccccc2C1=O | 93.1 µM (inactive) | 37.9 µM (inactive) | 63.4 µM (inactive) | > 100 µM (inactive) | > 100 µM (inactive) | > 100 µM (inactive) | – | > 100 µM (inactive) | > 100 µM (inactive) | > 100 µM (inactive) | 81.5 µM (inactive) | – | > 100 µM (inactive) | > 100 µM (inactive) | > 100 µM (inactive) | 51.8 µM (inactive) | 64 µM (inactive) | > 100 µM (inactive) | > 100 µM (inactive) | 44.9 µM (inactive)
6 | CC(=O)c1c2c(cc3c1CC1(C3)Cc3cc4c(c(C(C)=O)c3C1)CCCC4)CCCC2 | – | 28.7 µM (inactive) | 53.2 µM (inactive) | > 100 µM (inactive) | 25.1 µM (inactive) | > 100 µM (inactive) | 17.4 µM (inactive) | > 100 µM (inactive) | > 100 µM (inactive) | > 100 µM (inactive) | 55.8 µM (inactive) | 74.6 µM (inactive) | > 100 µM (inactive) | > 100 µM (inactive) | 45.6 µM (inactive) | 62.2 µM (inactive) | 15.8 µM (inactive) | – | > 100 µM (inactive) | 7.19 µM (inactive)
7 | CCOC(=O)C(Br)(C(N)=O)C1(O)OC(c2ccccc2)=C(Br)C1=O (stereo not drawn) | 22.2 µM (inactive) | > 100 µM (inactive) | – | 23.7 µM (inactive) | > 100 µM (inactive) | 18.4 µM (inactive) | 22.6 µM (inactive) | 66.1 µM (inactive) | 27.8 µM (inactive) | 26.2 µM (inactive) | 18.2 µM (inactive) | 3.42 µM (inactive) | 17.6 µM (inactive) | 20 µM (inactive) | 23.3 µM (inactive) | 24.3 µM (inactive) | 38.5 µM (inactive) | 19.6 µM (inactive) | 19.3 µM (inactive) | 2.65 µM (inactive)
8 | CCNC(=O)Cc1nc2c(N)ncnc2n1C1OC(CO)C(O)C1O (stereo not drawn) | > 100 µM (inactive) | > 100 µM (inactive) | 23.5 µM (inactive) | > 100 µM (inactive) | > 100 µM (inactive) | > 100 µM (inactive) | > 100 µM (inactive) | 39 µM (inactive) | > 100 µM (inactive) | > 100 µM (inactive) | > 100 µM (inactive) | > 100 µM (inactive) | > 100 µM (inactive) | 95.7 µM (inactive) | > 100 µM (inactive) | 58.6 µM (inactive) | 91.4 µM (inactive) | > 100 µM (inactive) | – | > 10 µM (inactive)
9 | CC1(C)N=C(/C(Cl)=[N+](/[O-])C(=O)c2ccc(F)cc2)C(C)(C)N1O | 16.9 µM (inactive) | 26.2 µM (inactive) | 17.9 µM (inactive) | 17.1 µM (inactive) | 17.1 µM (inactive) | 16.8 µM (inactive) | 16.4 µM (inactive) | 22.6 µM (inactive) | 16.7 µM (inactive) | 45.8 µM (inactive) | 16.4 µM (inactive) | – | > 10 µM (inactive) | 18.8 µM (inactive) | 14.6 µM (inactive) | 25.7 µM (inactive) | 10.8 µM (inactive) | 20.2 µM (inactive) | 14.8 µM (inactive) | 0.466 µM (active)
10 | Clc1cccc(-c2sc(-c3ccsc3)cc2Cc2ccsc2)c1 | > 10 µM (inactive) | > 10 µM (inactive) | > 10 µM (inactive) | > 10 µM (inactive) | > 10 µM (inactive) | > 10 µM (inactive) | > 10 µM (inactive) | > 10 µM (inactive) | > 10 µM (inactive) | > 10 µM (inactive) | – | – | – | > 10 µM (inactive) | > 10 µM (inactive) | 8 µM (inactive) | > 10 µM (inactive) | > 10 µM (inactive) | > 10 µM (inactive) | > 10 µM (inactive)
11 | CC(=O)Oc1ccc(C)c2c1[C@H]1CC[C@]3(C)[C@@H](OC(C)=O)CC[C@H]3[C@@H]1CC2 | 26.7 µM (inactive) | 18.6 µM (inactive) | – | 16.8 µM (inactive) | 17.9 µM (inactive) | 18.2 µM (inactive) | 19.5 µM (inactive) | – | 19.9 µM (inactive) | 20.5 µM (inactive) | 17 µM (inactive) | 17.7 µM (inactive) | 15.2 µM (inactive) | 18 µM (inactive) | 21.3 µM (inactive) | 19.3 µM (inactive) | 20.7 µM (inactive) | – | 19.1 µM (inactive) | 21.9 µM (inactive)
